Experimental data taken from ChEMBL document CHEMBL1140758, “Chemoenzymatic synthesis and antiviral evaluation of conformationally constrained and 3'-methyl-branched carbanucleosides using both enantiomers of the same building block” (Bioorg Med Chem, 2008).
Active and inactive are the calls of the source.

How the values were obtained:
Type in all cases: functional, organism-based
[1] = tested on: Punta Toro virus; test: Antiviral activity against Punta Toro virus in Vero cells at 100 ug/mL
[2] = tested on: Respiratory syncytial virus; test: Antiviral activity against RSV in HeLa cells at 100 ug/mL
[3] = tested on: Coxsackievirus B4; test: Antiviral activity against Coxsackie virus B4 in Vero cells at 100 ug/mL
[4] = tested on: Coxsackievirus B4; test: Antiviral activity against Coxsackie virus B4 in HeLa cells at 100 ug/mL
[5] = tested on: Sindbis virus; test: Antiviral activity against Sindbis virus in Vero cells at 100 ug/mL
[6] = tested on: Human alphaherpesvirus 1; test: Antiviral activity against thymidine kinase deficient HSV1 KOS in HEL cells at 100 ug/mL
[7] = tested on: Vaccinia virus; test: Antiviral activity against vaccinia virus in HEL cells at 100 ug/mL; settings: Orthopoxvirus vaccinia
[8] = tested on: Human alphaherpesvirus 1; test: Antiviral activity against HSV1 KOS in HEL cells at 100 ug/mL
[9] = tested on: Influenza A virus; test: Antiviral activity against influenza A virus H1N1 in MDCK cells at 100 ug/mL
[10] = tested on: Influenza B virus; test: Antiviral activity against influenza B virus in MDCK cells at 100 ug/mL
[11] = tested on: Human alphaherpesvirus 2; test: Antiviral activity against HSV2 G in HEL cells at 100 ug/mL
[12] = tested on: Influenza A virus; test: Antiviral activity against influenza A virus H3N2 in MDCK cells at 100 ug/mL
[13] = tested on: Vesicular stomatitis virus; test: Antiviral activity against VSV in HEL cells at 100 ug/mL
[14] = tested on: Human respirovirus 3; test: Antiviral activity against parainfluenza 3 virus in Vero cells at 100 ug/mL
[15] = tested on: Vesicular stomatitis virus; test: Antiviral activity against VSV in HeLa cells at 100 ug/mL
[16] = tested on: Mammalian orthoreovirus 1; test: Antiviral activity against Reovirus1 in Vero cells at 100 ug/mL

Measured: Activity

C[C@]12O[C@H]1[C@H](n1cnc3c(N)ncnc31)C[C@@H]2CO
inactive: all assays above

C[C@]12O[C@H]1[C@H](n1cnc3c(NC4CC4)ncnc31)C[C@@H]2CO
inactive: all assays above

C[C@]12C[C@H](n3cnc4c(N)ncnc43)C[C@@]1(CO)O2
inactive: all assays above

C[C@]12C[C@H](n3cnc4c(NC5CC5)ncnc43)C[C@@]1(CO)O2
inactive: all assays above

C[C@]12C[C@H](n3cnc4c(NC5CC5)nc(N)nc43)C[C@@]1(CO)O2
inactive: all assays above

C[C@]12O[C@H]1[C@H](n1cnc3c(NC4CC4)nc(N)nc31)C[C@@H]2CO
inactive: all assays above
